Experimental data as given in US20210330611A1, “THERAPY FOR NEUROLOGICAL DISEASES/DISORDERS” (priority 2020, published 2021).
Read-outs that look alike come from different tables or passages of the source.

Experiments:
[1] = tested on: fibrin-induced microglia activation; test: Image-based assay of fibrin-induced microglia activation (HTS and dose response); format: cell-based, rat; conditions: primary microglia HTS, fibrin stimulation; for inhibition at 10 µM: Rattus norvegicus, Microglia, read-out: Fibrin % inhibition
[2] = tested on: LPS-induced microglia activation; test: Image-based assay of LPS-induced microglia activation (HTS and dose response); format: cell-based, rat; conditions: for inhibition at 10 µM: Rattus norvegicus, Microglia, read-out: LPS % inhibition
[3] = tested on: fibrin- and LPS-induced microglia activation; test: cells; format: cell-based, rat
primary rat microglia [4] = tested on: primary rat microglia
primary rat microglia [5] = test: Cell toxicity (dead cells, size <150 μm2) in coated fibrin (cFib) assay; conditions: primary microglia HTS;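 further: share of dead cells sized under 150 µm2 at 10 µM in fibrin-stimulated microglia HTS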
[6] = primary microglia HTS, LPS stimulation, compounds at 10 μM
[7] = quadrant by fibrin and LPS inhibition, HTS at 10 μM
[8] = fibrin assay, dead cells (size <150 μm2)
[9] = cell size >800 μm2 as marker of activation
[10] = classification by fibrin and LPS inhibition in HTS
[11] = fibrin stimulation, cell size <150 μm2 as marker of toxicity
[12] = classification by fibrin and LPS inhibition, HTS at 10 μM
[13] = fibrin assay, dead cells (size <150 μm2), compounds at 10 μM

Structure (SMILES)	Quadrant (FIG. 5b) [3, 7]	Fibrin % cell toxicity (primary rat microglia [5]; [8]) [%]	LPS % cell toxicity (primary rat microglia [4]; rat) [%]	inhibition at 10 µM ([1]; compounds at 10 μM) [%]	inhibition at 10 µM [2, 6] [%]	Quadrant (FIG. 5b) [3, 12]	Fibrin % cell toxicity (primary rat microglia [5]; [13]) [%]	also measured
COc1cc2nc(N(C)CCCNC(=O)C3CCCO3)nc(N)c2cc1OC.Cl (stereo not shown) [Alfuzosin Hydrochloride, Alfuzosin]	Q4	1						Fibrin % inhibition ([1]; compounds at 10 μM): 1%; LPS % inhibition [2, 6]: 18%; LPS % cell toxicity (primary rat microglia [4]): 0%
O=C(/C=C/C=C/c1ccc2c(c1)OCO2)N1CCCCC1 [Piperine]			0					inhibition at 10 µM [1, 9]: -13%; inhibition at 10 µM ([2]; 48 h): 10%; Quadrant (FIG. 5b) [3, 10]: Q4; Fibrin % cell toxicity (primary rat microglia [5]; [11]): 1%
CCN(CC)CCOC(=O)c1ccc(N)cc1 [Procaine, Novocain]								Fibrin % inhibition [1, 9]: −10%; LPS % inhibition [2]: 25%; Quadrant (FIG. 5b) [3, 10]: Q4; LPS % cell toxicity (primary rat microglia [4]): 0%; Fibrin % cell toxicity (primary rat microglia [5]; [11]): 0%
C[N+](C)(C)CCCCCCCCCC[N+](C)(C)C [Decamethonium]			0	1	17	Q4	0	
C[C@]12C=CC(=O)C=C1CC[C@@H]1[C@@H]2[C@@H](O)C[C@@]2(C)[C@H]1CC[C@]2(O)C(=O)COC(=O)CCC(=O)O [Prednisolone Hemisuccinate]	Q2	3	3	106	96			
CC[N+](C)(C)c1cccc(O)c1 [Edrophonium]			0	-9	-2	Q4	1	
C[C@]12CC[C@@H]3c4ccc(OC(=O)N(CCCl)CCCl)cc4CC[C@H]3[C@@H]1CC[C@@H]2O [Estramustine]			1	8	16	Q4	1	
C[C@@H]1O[C@@H](O[C@@H]2C=C3CC[C@@H]4[C@H](CC[C@]5(C)[C@@H](c6ccc(=O)oc6)CC[C@]45O)[C@@]3(C)CC2)[C@H](O)[C@H](O)[C@H]1O [Proscillaridin]			0					inhibition at 10 µM [1, 9]: 8%; inhibition at 10 µM ([2]; 48 h): 16%; Quadrant (FIG. 5b) [3, 10]: Q4; Fibrin % cell toxicity (primary rat microglia [5]; [11]): 1%
CC(=O)SCC(Cc1ccccc1)C(=O)NCC(=O)OCc1ccccc1 (stereo not shown) [Racecadotril]			0					inhibition at 10 µM [1, 9]: -51%; inhibition at 10 µM ([2]; 48 h): 18%; Quadrant (FIG. 5b) [3, 10]: Q4; Fibrin % cell toxicity (primary rat microglia [5]; [11]): 1%
O=C1c2c(O)cccc2C([C@@H]2O[C@H](CO)[C@@H](O)[C@H](O)[C@H]2O)c2cc(CO)cc(O)c21 (stereo partly shown) [Aloin]	Q4	1	0	-35	14			
NS(=O)(=O)c1cc2c(cc1C(F)(F)F)NC(Cc1ccccc1)NS2(=O)=O (stereo not shown) [Bendrofumethiazide, Bendroflumethiazide]	Q4	1						Fibrin % inhibition ([1]; compounds at 10 μM): −15%; LPS % inhibition [2, 6]: 12%; LPS % cell toxicity (primary rat microglia [4]): 1%
C[C@]12CC[C@@H]3c4ccc(O)cc4CC[C@H]3[C@@H]1CC[C@@H]2OC(=O)CCC1CCCC1 [Estradiol Cypionate]			0	-25	8	Q4	0	
CCOC(=O)COc1ccc2c(=O)cc(-c3ccccc3)oc2c1 [Efloxate]			0	-8	-1	Q4	1	
CC(=O)Oc1cccc(O)c1 [Resorcinol Monoacetate]			1					inhibition at 10 µM [1, 9]: 12%; inhibition at 10 µM ([2]; 48 h): 26%; Quadrant (FIG. 5b) [3, 10]: Q4; Fibrin % cell toxicity (primary rat microglia [5]; [11]): 1%
Nc1ncnc2c1ncn2[C@@H]1O[C@H](CO)[C@@H](O)[C@H]1O [Adenosine]	Q4	1	1	-6	3			
CC[N+](CC)(CC(=O)Nc1c(C)cccc1C)Cc1ccccc1 [Denatonium Benzoate]			0	2	12	Q4	0	
CCCc1ncc(C[n+]2ccccc2C)c(N)n1 [Amprolium]	Q4	1	0	-10	8			
